Data published in patent US20040137085A1, “Treatment of HIV infection with humic acid” (priority 1993, published 2004).

What was measured:
Jurkat cells = test: Production of IL-2 by Jurkat T lymphoma cells; format: cell-based, human
Protocol: (§1) Typically, peripheral blood lymphocytes (PBL) from normal donors are incubated (2×10^6 cells/ml) in RPMI-1640 medium supplemented with 4 mM glutamine, 0.1 mM nonessential amino acids, 1 mM sodium pyruvate, 10 mM HEPES and 10% FCS and containing either Con A (5 μg/ml) or PHA (10 μg/ml) as the mitogen. AVC was added at the initiation of the culture at the dose of 12 μg/ml. The cultures were then incubated in a 5% CO2 atmosphere. Culture supernatants were collected on day 2, 3 and 4 and tested for the content (Units/ml) of IL-2 using a biological assay consisting in measuring the proliferative response of murine CTLL-2 T cells whose growth in culture is strictly dependent on the presence of IL-2 in the medium. The proliferative response (^3H-Thymidine incorporation) of CTLL-2 cells was plotted on a reference curve constructed with a standard amount of IL-2 and the experimental values calculated accordingly.
(§2) The effect on IL-2 production by AVC was not due to a direct proliferative effect on PBL in culture (Table IV) nor did it have a direct effect on IL-2 production by Jurkat or LBRM-33 T lymphoma cells (Table V).

human PBL = test: Proliferation of human PBL; format: cell-based; design: unit not given here
Excerpt: as §2

LBRM-33 Cells = test: Production of IL-2 by LBRM-33 T lymphoma cells; format: cell-based
Protocol: as §1, §2

## concanavalin A [Con A]
Jurkat cells; 24 Hours
  Production of IL-2: 3,815
Jurkat cells; 48 Hours
  Production of IL-2: 10,061
Human PBL; Experiment 1, 24 Hours
  Proliferation of human PBL: 3,772
Human PBL; Experiment 1, 48 Hours
  Proliferation of human PBL: 37,839
Human PBL; Experiment 1, 72 Hours
  Proliferation of human PBL: 42,357
Human PBL; Experiment 2, 24 Hours
  Proliferation of human PBL: 182
Human PBL; Experiment 2, 48 Hours
  Proliferation of human PBL: 23,767
LBRM-33 Cells; 24 Hours
  Production of IL-2: 28,774
LBRM-33 Cells; 48 Hours
  Production of IL-2: 28,880
